Patent US7700562B2, “Use of —furin—“convertase” inhibitors in the treatment of fibrosis and scarring” (Renovo Limited, priority 2002, dated 2010)
Non-standard residues stand in square brackets, D forms with d. Residues, ends and D or L forms follow the SMILES beside them. *: point of attachment. Sta = CC(C)C[C@H](N)[C@@H](O)CC(=O)O; Decanoyl = CCCCCCCCCC(=O)*; Isovaleryl = CC(C)CC(=O)*; CH2Cl = ClC*

What was measured:
[1] = tested on: latent TGF-β activation in human platelets; test: TGF-β activation by thrombin-activated human platelets, active and total TGF-β by PAI/L bioassay; format: cell-based; details: for latent TGF-β activation: platelets pre-incubated with inhibitor before thrombin stimulation, platelet releasates, FIG. 1 panels A and B
[2] = tested on: latent TGF-β activation in human platelets; test: as above; format: cell-based; details: for active TGF-β in releasates: thrombin-stimulated platelets, hexaarginine pre-incubated, dec-RVKR-cmk added, FIG. 2 panel A
Description: Peripheral venous blood samples from healthy adult volunteers (aged 21 to 45) were taken into 20-gauge S-Monovettes. EDTA was used to prevent coagulation of the samples. Human platelets were isolated by differential centrifugation according to the following protocol:
Blood samples were centrifuged at 300 g for 10 minutes to produce a supernatant of platelet rich plasma. Platelet rich plasma was then centrifuged at 2,500 g for 15 minutes to produce a pellet of platelets. Platelets were harvested from the pellet and resuspended prior to use.
(§1) Platelets collected as described above were resuspended in distilled water and incubated at room temperature for 5 minutes. Lysis was stopped by addition of an equal volume of 2× serum-free DME medium containing 0.2% pyrogen poor bovine serum albumen. The lysate was cleared by centrifugation at 12,000 g for 10 minutes at room temperature before use.
Human platelets collected as outlined above were activated by the addition of thrombin (0.1 u/ml for 30 minutes at 37° C.).
Platelets were activated with thrombin in the absence or presence of furin inhibitors. […] Active and total TGF-β in releasates were determined in the PAI/L bioassay. The results are shown in panel A of FIG. 2.

[3] = tested on: latent TGF-β activation in platelet-free releasates; test: TGF-β activation in platelet-free releasates of activated platelets, PAI/L bioassay; format: biochemical, human; details: inhibitor added to platelet-free releasates, 30 mm at 37° C.; FIG. 2B
Description: In a further experiment, furin inhibitors were added to platelet-free releasates of activated platelets, and activation was allowed to continue in the absence of platelets for […] at 37° C. The results of this experiment are shown in panel B of FIG. 2. Active TGF-β levels in the controls were 77 pg/ml (dec-RVKR-cmk data (SEQ ID NO:1)) and 104 pg/ml (hexaarginine data (SEQ ID NO: 7)). Incubation on ice reduced activation in the controls to approximately 56% (data not shown). Data represent the mean values of three independent experiments assayed in triplicate.

[4] = tested on: furin-like enzyme activity; test: Furin-like enzyme activity in platelet lysates and releasates, fluorogenic furin substrate pyr-RTKR-amc; format: biochemical, human; details: hexaarginine 200 μM, dec-RVKR-cmk 150 μM, FIG. 3; for furin-like enzyme activity in cell lysates: hypotonic lysates of activated platelets; for furin-like enzyme activity in releasates: releasates of activated platelets
Description: as §1
Releasates or hypotonic lysates of activated platelets were assayed using the furin substrate, pyr-RTKR-amc (SEQ ID NO:3) in the absence or presence of the furin inhibitors, hexaarginine (SEQ ID NO: 7) (200 μM) or dec-RVKR-cmk (SEQ ID NO:1) (150 μM). Values were corrected for substrate-independent endogenous fluorescence (control without substrate) as well as for spontaneous substrate hydrolysis (buffer control). Mean values±S.E.M. of 2-3 separate experiments assayed in duplicate are shown.
The presence of furin-like enzyme activity in both hypotonic lysates and releasates of human platelets was analysed using the fluorogenic furin substrate, pyr-RTKR-amc (SEQ ID NO:3). Platelet lysates contained a furin-like enzyme activity, part of which (approximately 12%) was released upon thrombin stimulation. Enzyme activity in cell lysates and releasates was inhibited by dec-RVKR-cmk (SEQ ID NO:1) and hexa-L-arginine (SEQ ID NO: 7) (FIG. 3).

## CC(C)C[C@H](NC(=O)[C@H]1O[C@@H]1C(=O)O)C(=O)NCCCCN=C(N)N [E-64]
[1]
  latent TGF-β activation: ineffective

## O=C[C@@H](O)[C@@H](O)[C@H](O)[C@H](O)COP(=O)(O)O [M6P, mannose-6-phosphate]
[1]
  latent TGF-β activation: not significantly affected

## CC(=O)N[C@@H](CC(C)C)C(=O)N[C@@H](CC(C)C)C(=O)N[C@H](C=O)CCCNC(=N)N [leupeptin]
[1]
  latent TGF-β activation: ineffective

## Cl.NCCc1ccc(S(=O)(=O)F)cc1 [pefabloc]
[1]
  latent TGF-β activation: ineffective

## CC(C)CC(=O)N[C@H](C(=O)N[C@H](C(=O)N[C@@H](CC(C)C)[C@@H](O)CC(=O)N[C@@H](C)C(=O)N[C@@H](CC(C)C)[C@@H](O)CC(=O)O)C(C)C)C(C)C [pepstatin] (Isovaleryl-VV[Sta]A[Sta]-OH)
[1]
  latent TGF-β activation: ineffective

## LSKL peptide: inhibitor specific for TSP-1
[1]
  latent TGF-β activation: not significantly affected

## aprotinin
[1]
  latent TGF-β activation: ineffective

## decanoyl-Arg-Val-Lys-Arg-chloromethyl ketone (Decanoyl-RVKR-CH2Cl) [dec-RVKR-cmk]
[2]; remaining after inhibitor, believed to be activated prematurely during platelet preparation
  residual TGF-β present: 20-30%
[2]
  active TGF-β in releasates: considerably reduces
[3]
  activation in platelet-free releasates: inhibited, in a dose-dependent fashion
[4]
  furin-like enzyme activity in cell lysates: inhibited
  furin-like enzyme activity in releasates: inhibited
[1]; measured in hypotonic lysates, dose-dependent, FIG. 1 panel C
  generation of active TGF-β intracellularly: drastically reduced
[1]; platelet incubation with inhibitor, thrombin stimulation, dose-dependent, FIG. 1 panel C
  generation of active TGF-β in releasates: drastically reduced

## hexa-L-arginine (RRRRRR)
[2]
  active TGF-β in releasates: significantly reduced
[3]
  activation in platelet-free releasates: inhibited, in a dose-dependent fashion
[4]
  furin-like enzyme activity in cell lysates: inhibited
  furin-like enzyme activity in releasates: inhibited

## α1-antitrypsin
[1]
  latent TGF-β activation: ineffective
